Values joined by “and” are separate entries in the source; they are usually repeats but may differ in a detail not shown here. Identical values can stand only once.
Assays:
[1] = molecular target: T1, PIP4K2A (full length protein, SignalChem) (Homo sapiens, UniProt P48426); assay: Kinase Assay PIP4K2 A (Sprint); ADP-Glo biochemical assay; settings: Table 2; compounds listed under IC50 range headings
T1 construct: 4 nM PIP4K2A (full length protein, SignalChem); purchased SignalChem
T1 sequence (P48426 1-406): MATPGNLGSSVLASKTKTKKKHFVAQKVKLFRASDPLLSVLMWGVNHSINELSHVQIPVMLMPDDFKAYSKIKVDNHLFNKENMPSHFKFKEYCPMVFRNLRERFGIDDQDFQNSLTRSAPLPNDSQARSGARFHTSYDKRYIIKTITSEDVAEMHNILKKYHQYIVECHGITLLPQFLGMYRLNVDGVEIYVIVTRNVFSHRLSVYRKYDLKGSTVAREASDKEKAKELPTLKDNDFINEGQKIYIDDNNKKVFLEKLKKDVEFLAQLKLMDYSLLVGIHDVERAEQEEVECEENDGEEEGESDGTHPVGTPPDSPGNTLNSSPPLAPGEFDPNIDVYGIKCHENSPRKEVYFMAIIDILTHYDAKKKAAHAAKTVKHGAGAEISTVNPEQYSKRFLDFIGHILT
Method in brief: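 ADP-Glo luminescence detected ADP after a 1 h RT reaction started with 60 μM ATP solution. Before that, full-length PIP4K2A (4 nM in mix) with 100 μM PI(5)P diC8 was pre-incubated 15 min with compounds in MOPS buffer pH 7.2, 25 mM MgCl2, 0.005% Tween 20. IC50 derived from % inhibition relative to DMSO over 10 three-fold concentrations.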

GST tagged PIP4KtypeIIA = molecular target: T2, GST tagged PIP4KtypeIIA (Homo sapiens, UniProt P48426); assay: ADP-glo kinase assay PIP4K 2A (PIP4KtypeIIA inhibition assay); type: biochemical; settings: Table 3; compounds listed under IC50 range headings; 10 uM ATP, 0.5 nM PIP4KIIA
T2 construct: made in house; host or cells: E. coli
T2 sequence (P48426 1-406): T1 sequence (P48426 1-406)
Method in brief: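 Read-out was ADP-Glo luminescence converted to μM ADP, with IC50 plotted as % of no-inhibitor activity against log concentration. Reactions contained 10 μM ATP, 80 μM PI5P with DOPE carrier, and 0.5 nM GST-tagged PIP4KIIA (E. coli-expressed) in pH 7.3 HEPES/MgCl2 buffer with 5% DMSO. Enzyme and compound (≤4.8 μM) were preincubated 1 h at 27 °C before the 1 h reaction.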

GST tagged PIP4KtypeIIB = molecular target: T3, GST tagged PIP4KtypeIIB (Homo sapiens, UniProt P78356); assay: Trans-FI P kinase assay PIP4K2B (PIP4KtypeIIB inhibition assay); type: biochemical; settings: Table 4; compounds listed under IC50 range headings; 100 uM GTP, 5 nM PIP4KIIB; read-out: Trans-FI P kinase assays: PIP4K2B IC50
T3 construct: made in house; host or cells: E. coli
T3 sequence (P78356 1-416): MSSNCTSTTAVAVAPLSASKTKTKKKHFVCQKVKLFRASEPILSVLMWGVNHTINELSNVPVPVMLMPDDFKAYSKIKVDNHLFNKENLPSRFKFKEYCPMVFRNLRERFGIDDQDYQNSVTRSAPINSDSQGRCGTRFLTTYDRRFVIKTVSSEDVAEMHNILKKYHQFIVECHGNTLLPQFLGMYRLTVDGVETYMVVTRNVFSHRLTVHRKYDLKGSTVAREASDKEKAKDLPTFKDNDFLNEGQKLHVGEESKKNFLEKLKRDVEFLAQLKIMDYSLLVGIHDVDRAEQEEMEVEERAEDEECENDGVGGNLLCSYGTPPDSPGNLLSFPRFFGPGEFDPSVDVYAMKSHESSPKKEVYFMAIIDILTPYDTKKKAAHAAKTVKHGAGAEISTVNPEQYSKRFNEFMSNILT
Method in brief: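 Transcreener FI fluorescence, converted to GDP by calibration, tracked product from 5 nM E. coli-expressed GST-PIP4KIIB acting on 80 uM PI5P (DOPE carrier) with 100 uM GTP. Compound (top 4.8 uM final, 5% DMSO) was preincubated 1 h at 27 C before the 2 h reaction; IC50 fitted from residual activity.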

Compound | IC50 [1] | IC50 (GST tagged PIP4KtypeIIA) | IC50 (GST tagged PIP4KtypeIIB)
CN1C(=O)Cc2c(-c3cncc(-c4ccc(N5CCCC5=O)cc4)c3)ccnc21 [Example 76, 1-methyl-4-(5-(4-(2-oxopyrrolidin-1-yl)phenyl)pyridin-3-yl)-1,3-dihydro-2H-pyrrolo[2,3-b]pyridin-2-one] | 100 to 1000 nM | 2500 to 5000 nM | 1000 to 2500 nM
Cn1cc(-c2cncc(-c3ccc(N4CCCC4=O)cc3)c2)c2cn[nH]c2c1=O [Example 54, 6-methyl-4-(5-(4-(2-oxopyrrolidin-1-yl)phenyl)pyridin-3-yl)-1,6-dihydro-7H-pyrazolo[3,4-c]pyridin-7-one] | 5 to 100 nM | 100 to 1000 nM | 100 to 1000 nM
CC(=O)N(C)c1cc(-c2cncc(-c3ccc(N4CCCC4=O)cc3)c2)ccn1 [Example 57, N-methyl-N-(5-(4-(2-oxopyrrolidin-1-yl)phenyl)-[3,4′-bipyridin]-2′-yl)acetamide] | < 5000 nM | > 5000 nM | > 5000 nM
O=C1CCCN1c1ccc(-c2cncc(-c3c[nH]c4ncccc34)c2)cc1 [Example 28, 1-(4-(5-(1H-pyrrolo[2,3-b]pyridin-3-yl)pyridin-3-yl)phenyl)pyrrolidin-2-one] | 5 to 100 nM | 100 to 1000 nM | 100 to 1000 nM
Cn1cc(-c2cncc(-c3ccc(N4CCCC4=O)cc3)c2)ccc1=O [Example 37, 1-methyl-5′-(4-(2-oxopyrrolidin-1-yl)phenyl)-[3,3′-bipyridin]-6(1H)-one] | 2500 to 5000 nM | > 5000 nM | > 5000 nM
O=C1CCCN1c1ccc(-c2cncc(-c3ccnc4[nH]ccc34)c2)cc1 [Example 58, 1-(4-(5-(1H-pyrrolo[2,3-b]pyridin-4-yl)pyridin-3-yl)phenyl)pyrrolidin-2-one] | 5 to 100 nM | 2500 to 5000 nM | 100 to 1000 nM
Cc1[nH]c2ncccc2c1-c1cncc(-c2ccc(C(=O)N(C)C)cc2)c1 [Example 11, N,N-dimethyl-4-(5-(2-methyl-1H-pyrrolo[2,3-b]pyridin-3-yl)pyridin-3-yl)benzamide] | 100 to 1000 nM | 100 to 1000 nM | 100 to 1000 nM
CC(C)Cn1cc(-c2cncc(-c3ccc(N4CCCC4=O)cc3)c2)c2cn[nH]c2c1=O [Example 68, 6-isobutyl-4-(5-(4-(2-oxopyrrolidin-1-yl)phenyl)pyridin-3-yl)-1,6-dihydro-7H-pyrazolo[3,4-c]pyridin-7-one] | 5 to 100 nM | 10 to 100 nM | 10 to 100 nM
Cc1cc(N2CCCC2=O)ccc1-c1cncc(-c2ccncc2)c1 [Example 81, 1-(4-([3,4′-bipyridin]-5-yl)-3-methylphenyl)pyrrolidin-2-one] | < 5000 nM | 1000 to 2500 nM | –
COCc1c(-c2ccncc2)cncc1-c1ccc(N2CCCC2=O)cc1 [Example 83, 1-(4-(4-(methoxymethyl)-[3,4′-bipyridin]-5-yl)phenyl)pyrrolidin-2-one] | 1000 to 2500 nM | > 5000 nM | –

More lines, now with the values ahead:

IC50 [1] | IC50 (GST tagged PIP4KtypeIIA) | IC50 (GST tagged PIP4KtypeIIB) | Compound
5 to 100 nM | 10 to 100 nM | 10 to 100 nM | COC(=O)c1cc2c(-c3cncc(-c4ccc(N5CCCC5=O)cc4C)c3)ccnc2[nH]1 [Example 171, methyl 4-(5-(2-methyl-4-(2-oxopyrrolidin-1-yl)phenyl)pyridin-3-yl)-1H-pyrrolo[2,3-b]pyridine-2-carboxylate]
100 to 1000 nM | 100 to 1000 nM | 100 to 1000 nM | COc1cc(-c2cncc(-c3ccc(N4CCCC4=O)cc3)c2)c2c[nH]nc2n1 [Example 257, 1-(4-(5-(6-methoxy-2H-pyrazolo[3,4-b]pyridin-4-yl)pyridin-3-yl)phenyl)pyrrolidin-2-one]
100 to 1000 nM | 100 to 1000 nM | 100 to 1000 nM | Cn1ccc2c(-c3cncc(-c4ccc(N5CCCC5=O)cc4)c3)cn(C)c2c1=O [Example 243, 1,6-dimethyl-3-(5-(4-(2-oxopyrrolidin-1-yl)phenyl)pyridin-3-yl)-1,6-dihydro-7H-pyrrolo[2,3-c]pyridin-7-one]
100 to 1000 nM | 100 to 1000 nM | 2500 to 5000 nM | O=C1CCCN1c1ccc(-c2cncc(-c3cnc4nccn4c3)c2)cc1 [Example 275, 1-(4-(5-(imidazo[1,2-a]pyrimidin-6-yl)pyridin-3-yl)phenyl)pyrrolidin-2-one]
5 to 100 nM | 10 to 100 nM | 10 to 100 nM | COC(=O)c1cc2c(-c3cncc(-c4ccc(N5CCCC5=O)cc4)c3)ccnc2o1 [Example 165, methyl 4-(5-(4-(2-oxopyrrolidin-1-yl)phenyl)pyridin-3-yl)furo[2,3-b]pyridine-2-carboxylate]
100 to 1000 nM | 1000 to 2500 nM | 100 to 1000 nM | Cc1cc(N2CCCC2=O)ccc1-c1cncc(-c2ccnc3[nH]c(C(=O)N(C)C)cc23)c1 [Example 169, N,N-dimethyl-4-(5-(2-methyl-4-(2-oxopyrrolidin-1-yl)phenyl)pyridin-3-yl)-1H-pyrrolo[2,3-b]pyridine-2-carboxamide]
100 to 1000 nM | 100 to 1000 nM | 100 to 1000 nM | Nc1ncc(-c2ccncc2)cc1-c1ccc(N2CCCC2=O)cc1 [Example 84, 1-(4-(6-amino-[3,4′-bipyridin]-5-yl)phenyl)pyrrolidin-2-one]
100 to 1000 nM | 100 to 1000 nM | 10 to 100 nM | CC(C)CNC(=O)c1cc2c(-c3cnc(N)c(-c4ccc(C(=O)N(C)C)cn4)c3)ccnc2[nH]1 [Example 131, 4-(2′-amino-5-(dimethylcarbamoyl)-[2,3′-bipyridin]-5′-yl)-N-isobutyl-1H-pyrrolo[2,3-b]pyridine-2-carboxamide]
100 to 1000 nM | 100 to 1000 nM | 100 to 1000 nM | CN(C)C(=O)c1ccc(-c2cc(-c3ccnc4ncccc34)cnc2N)nc1 [Example 111, 2′-amino-N,N-dimethyl-5′-(1,8-naphthyridin-4-yl)-[2,3′-bipyridine]-5-carboxamide]
1 to 5 nM | 10 to 100 nM | 1 to 10 nM | CNC(=O)c1cc2c(-c3cnc(N)c(-c4ccc(N5CCCC5=O)cc4)c3)ccnc2o1 [Example 85, 4-(6-amino-5-(4-(2-oxopyrrolidin-1-yl)phenyl)pyridin-3-yl)-N-methylfuro[2,3-b]pyridine-2-carboxamide]
5 to 100 nM | 100 to 1000 nM | 100 to 1000 nM | Cc1c(-c2cncc(-c3ccc(N4CCCC4=O)cc3)c2)c2cc(C(=O)N(C)C)cnc2n1C [Example 249, N,N,1,2-tetramethyl-3-(5-(4-(2-oxopyrrolidin-1-yl)phenyl)pyridin-3-yl)-1H-pyrrolo[2,3-b]pyridine-5-carboxamide]
5 to 100 nM | 100 to 1000 nM | 100 to 1000 nM | CNC(=O)c1cc2c(-c3cncc(-c4ccc(N5CCCC5=O)cc4)c3C)ccnc2o1 [Example 174, N-methyl-4-(4-methyl-5-(4-(2-oxopyrrolidin-1-yl)phenyl)pyridin-3-yl)furo[2,3-b]pyridine-2-carboxamide]
< 5000 nM | > 5000 nM | – | COC(=O)c1c[nH]c2nccc(-c3cnc(N)c(-c4ccc(C(=O)N(C)C)cn4)c3)c12 [Example 114, methyl 4-(2′-amino-5-(dimethylcarbamoyl)-[2,3′-bipyridin]-5′-yl)-1H-pyrrolo[2,3-b]pyridine-3-carboxylate]
< 5000 nM | 10 to 100 nM | – | Cn1cc(-c2cncc(-c3ccc(N4CCCC4=O)cc3)c2)c2cncnc21 [Example 153, 1-(4-(5-(7-methyl-7H-pyrrolo[2,3-d]pyrimidin-5-yl)pyridin-3-yl)phenyl)pyrrolidin-2-one]
– | > 5000 nM | 100 to 1000 nM and > 5000 nM | O=C(Nc1ccc(-c2cncc(-c3ccnc4[nH]ncc34)c2)cc1)c1cc(C2CCC2)on1 [Example 205, N-(4-(5-(1H-pyrazolo[3,4-b]pyridin-4-yl)pyridin-3-yl)phenyl)-5-cyclobutylisoxazole-3-carboxamide]

Source: US11919902B2, “Aryl-bipyridine amine derivatives as phosphatidylinositol phosphate kinase inhibitors” (HiberCell, Inc., priority 2017, dated 2024)
